Experimental data reported in article PMC4769088, “Antifungal Activity and Action Mechanism of Histatin 5-Halocidin Hybrid Peptides against Candida ssp” (PLoS ONE, 2016).
Where a SMILES comes first, the peptide text is derived from it. Bridges are numbered along the chain shown (N, C = ends). Roman numbers before positions name the chains, in order.

System: C. tropicalis
Assay: Broth dilution assay (MIC)
Type: cell-based, Candida tropicalis
Procedure: To determine the candidacidal activity of the peptides, we used Candida strains obtained from the Culture collection of antimicrobial resistant microbes at Seoul Women’s University in Korea. These included three Candida albicans (CCARM 14020, 14021, 14022), Candida guillermondi and Candida tropicalis. In addition, Candida albicans SC5413 was kindly provided by Dr Jeong-Yoon Kim at the Department of Microbiology & Molecular Biology, Chungnam University, Korea. Yeast were cultured overnight at 30°C in 10 ml of yeast extract-peptone-dextrose (YPD) broth (Qbiogene), then diluted in 10 ml of YPD broth to OD600 = 0.2 and grown for an additional 4 h with shaking at 30°C until OD600 = 0.8 in order to obtain mid-log phase cultures. The peptides (Hst 5, P113, HHP1, HHP2, PH1, PH2, di-PH1, di-PH2, WP1, di-WP2, di-15Hc and di-18Hc) in this study were synthesized by using standard solid-phase synthesis protocols and were purified by reversed-phase high-performance liquid chromatography at Anygen Inc. (Korea). FITC-labeled peptides (F-Hst5, F-P113, F-HHP1, F-di-PH2, F-di-WP2 and F-di-18Hc) were also synthesized by 6-aminohexnoic acid linker at Anygen (Korea) for confocal experiments.
The candidacidal activities of the peptides were tested by using standard microdilution plate assays, radial diffusion assays and broth dilution assay slightly modified from the procedure recommended by the National Committee for Clinical Laboratory Standards. For the candidacidal assays, C. albicans cells were grown in YPD medium and washed twice with 10 mM sodium phosphate buffer (NaPB; Na2HPO4, NaH2PO4, pH 7.4). The cells (1 x 10^6) were then mixed with different concentrations of peptides and incubated at 30°C with constant shaking for 60 min. For energy depletion experiments, cells were pre-incubated with 10 mM NaPB containing 5 mM NaN3 at 30°C for 60 min before the addition of peptides. The cell suspensions were diluted in 10 mM NaPB and aliquots of 500 cells were spread onto YPD agar plates then incubated for 24 h at 30°C to visualize the surviving colonies. Cell survival was expressed as a percentage of that for the control, and the loss of viability was calculated as [1 x (number of colonies from peptide-treated cells/number of colonies from control cells)] x 100. Candidacidal assays were performed in triplicate. For the radial diffusion assay, C. albicans cells were grown in YPD medium overnight and washed twice with 10 mM NaPB. […] The clear-zone diameters were measured to the nearest 0.1 mm and graphed against the peptide concentration. […] The numbers of yeasts were counted using a hemocytometer. […] The antifungal activities were evaluated after 24 h of incubation at 30°C by the observation of visible turbidity the wells. […]

Row | SMILES | killing activities against C. tropicalis in 150 mM NaCl salt | increase in MIC against C. tropicalis at 150 mM salt (150 mM NaCl versus no salt) [fold]
1 | CC(C)C[C@H](NC(=O)CNC(=O)[C@H](Cc1c[nH]cn1)NC(=O)[C@H](Cc1c[nH]cn1)NC(=O)[C@H](CC(C)C)NC(=O)[C@H](CC(C)C)NC(=O)[C@H](C)NC(=O)[C@H](CC(N)=O)NC(=O)[C@H](CC(C)C)NC(=O)[C@@H](N)Cc1c[nH]c2ccccc12)C(=O)N[C@@H](CC(N)=O)C(=O)N[C@@H](CSSC[C@H](NC(=O)[C@H](CC(N)=O)NC(=O)[C@H](CC(C)C)NC(=O)CNC(=O)[C@H](Cc1c[nH]cn1)NC(=O)[C@H](Cc1c[nH]cn1)NC(=O)[C@H](CC(C)C)NC(=O)[C@H](CC(C)C)NC(=O)[C@H](C)NC(=O)[C@H](CC(N)=O)NC(=O)[C@H](CC(C)C)NC(=O)[C@@H](N)Cc1c[nH]c2ccccc12)C(=O)N[C@@H](C)C(=O)N[C@@H](CCCCN)C(=O)NCC(=O)N[C@H](C(=O)N[C@@H](CC(C)C)C(=O)N[C@@H](C)C(N)=O)C(C)C)C(=O)N[C@@H](C)C(=O)N[C@@H](CCCCN)C(=O)NCC(=O)N[C@H](C(=O)N[C@@H](CC(C)C)C(=O)N[C@@H](C)C(N)=O)C(C)C [di-18Hc, reference compound] (I: H-WLNALLHHGLNCAKGVLA-NH2 / II: H-WLNALLHHGLNCAKGVLA-NH2; disulfide I:12-II:12 (inferred); N-terminus assumed) | retained | –
2 | CC(C)C[C@H](NC(=O)CNC(=O)[C@H](Cc1c[nH]cn1)NC(=O)[C@H](Cc1c[nH]cn1)NC(=O)[C@H](CCCNC(=N)N)NC(=O)[C@H](CCCCN)NC(=O)[C@H](C)N)C(=O)N[C@@H](CC(N)=O)C(=O)N[C@@H](CSSC[C@H](NC(=O)[C@H](CC(N)=O)NC(=O)[C@H](CC(C)C)NC(=O)CNC(=O)[C@H](Cc1c[nH]cn1)NC(=O)[C@H](Cc1c[nH]cn1)NC(=O)[C@H](CCCNC(=N)N)NC(=O)[C@H](CCCCN)NC(=O)[C@H](C)N)C(=O)N[C@@H](C)C(=O)N[C@@H](CCCCN)C(=O)N[C@@H](Cc1ccccc1)C(=O)N[C@@H](Cc1c[nH]cn1)C(N)=O)C(=O)N[C@@H](C)C(=O)N[C@@H](CCCCN)C(=O)N[C@@H](Cc1ccccc1)C(=O)N[C@@H](Cc1c[nH]cn1)C(N)=O [di-PH2] (I: H-AKRHHGLNCAKFH-NH2 / II: H-AKRHHGLNCAKFH-NH2; disulfide I:9-II:9 (inferred); N-terminus assumed) | retained | 2
3 | CC(C)C[C@H](NC(=O)[C@@H](N)Cc1c[nH]c2ccccc12)C(=O)N[C@@H](CC(N)=O)C(=O)N[C@@H](C)C(=O)N[C@@H](CCCCN)C(=O)N[C@@H](CCCNC(=N)N)C(=O)N[C@@H](Cc1c[nH]cn1)C(=O)N[C@@H](Cc1c[nH]cn1)C(=O)NCC(=O)N[C@@H](Cc1ccc(O)cc1)C(=O)N[C@@H](CCCCN)C(=O)N[C@@H](CSSC[C@H](NC(=O)[C@H](CCCCN)NC(=O)[C@H](Cc1ccc(O)cc1)NC(=O)CNC(=O)[C@H](Cc1c[nH]cn1)NC(=O)[C@H](Cc1c[nH]cn1)NC(=O)[C@H](CCCNC(=N)N)NC(=O)[C@H](CCCCN)NC(=O)[C@H](C)NC(=O)[C@H](CC(N)=O)NC(=O)[C@H](CC(C)C)NC(=O)[C@@H](N)Cc1c[nH]c2ccccc12)C(=O)N[C@@H](CCCCN)C(=O)N[C@@H](Cc1ccccc1)C(=O)N[C@@H](Cc1c[nH]cn1)C(N)=O)C(=O)N[C@@H](CCCCN)C(=O)N[C@@H](Cc1ccccc1)C(=O)N[C@@H](Cc1c[nH]cn1)C(N)=O [di-WP2] (I: H-WLNAKRHHGYKCKFH-NH2 / II: H-WLNAKRHHGYKCKFH-NH2; disulfide I:12-II:12 (inferred); N-terminus assumed) | retained | –
